The results in this text go back to article PMC12147355, “Targeted destruction of follicle stimulating hormone receptor-positive cancer cells in vitro and in vivo by a lytic peptide Phor21-FSHβ conjugate” (Molecular Medicine, 2025).

Like-named read-outs stand apart in the source and are kept apart here. Ends that are not written are not given here.

One data set deals with HEK-293 xenografts. The experiment in a line: HEK-293 (FSHR-negative) cell xenografts in athymic nude male mice. The data set is classed as in vivo. The conditions noted are these: 8 mg/kg/72 h, 21 days, n = 8–12. An excerpt:
(§1) All the mouse experiments were approved by the local ethics committee of the Medical University of Bialystok, Poland. Athymic nude males (Crl: NU(NCr)-Foxn1^nu, 8–10 weeks old, 20–23 g) purchased from Charles River Laboratories International, Inc. (Sulzfeld, Germany; RRID: SCR_003792) were housed two or three per cage and provided with sterilized pellet chow and water. The animals were maintained in a pathogen-free mouse colony at the Center of Experimental Medicine Animal Facility (Bialystok, Poland).
(§2) HEK293-FSHR, HEK-293, and LNCaP cells were treated with trypsin when they were nearly confluent and were harvested. The cells were centrifuged at 1100 rpm for 5 min and resuspended in sterile non-supplemented culture medium mixed 1:1 with the Matrigel® matrix (Corning, Corning, USA). The cell suspension (1 × 10^6 cells/0.2 ml - HEK293-FSHR and HEK-293 cells; 5 × 10^6 cells/0.2 ml – LNCaP cells) was injected subcutaneously into the interscapulum area. When the xenograft volume reached 150–200 mm^3 (5–8 days after implantation), the xenograft-bearing mice were randomly divided into treatment groups, as described in Suppl Table 2.
(§3) Three independent xenograft experiments were conducted. In the first set, we tested whether the Phor21-FSHβ33–53 C/S conjugate selectively targeted and destroyed FSHR-expressing HEK293-FSHR cells, using a proof-of-concept experiment. […]

For data set [1] the following is noted: mouse, in vivo.
Protocol: (§6) In each experimental set, the mice were sacrificed 3 days after the last injection. Total blood was collected via heart puncture under isoflurane anesthesia. The animals were euthanized by cervical dislocation. Body weight, selected organs, xenograft weights/volumes, and sizes were recorded at the time of necropsy. The xenografts and testes were fixed in 10% neutral buffered formalin or snap-frozen in liquid nitrogen for further experiments.
The test system of the next data set is LNCaP xenografts. In words: LNCaP cell xenografts in athymic nude male mice. It is filed as in vivo. The conditions noted are these: Phor21 8 mg/kg/72 h, Phor21-FSHβ 2 or 8 mg, 21 days; for growth of LNCaP xenografts (total xenograft volume at necropsy): CTX 5 mg/kg/48h, n = 10–12.
From the text: as §1, §2
Three independent xenograft experiments were conducted. In the first set, we tested whether the Phor21-FSHβ33–53 C/S conjugate selectively targeted and destroyed FSHR-expressing HEK293-FSHR cells, using a proof-of-concept experiment. CTX was used to inhibit FSH secretion, which competed with Phor21-FSHβ33–53 C/S for FSHR-binding sites (Suppl Table 2). In the second set of experiments, we tested the specificity of the Phor21-FSHβ33–53 C/S conjugate using FSHR-negative HEK293 cells xenografted into nude mice (Suppl Table 2). Finally, in the third set of in vivo experiments, we tested whether Phor21-FSHβ33–53 C/S conjugate treatment could inhibit the growth of human prostate cancer LNCaP cell xenografts (FSHR-negative cells) by destroying FSHR-positive endothelial cells in xenograft tissues, as reported previously (Radu et al. [2010]) (Suppl Table 2). Phor21-FSHβ33–53 C/S was later on addressed as Phor21-FSHβ. […]

The nature of data set [2]: Body and organ weights at necropsy. The conditions noted are these: nude males xenografted with HEK293-FSHR cells, Fig. S4.
Protocol: as §6
Another data set deals with HEK293-FSHR xenografts. The experiment in a line: HEK293-FSHR cell xenografts in athymic nude male mice. It is filed as in vivo.
From the text: as §1, §2, §3

Data set [3] has as its system HEK-293 cells. In words: Caspase Glo 3/7 apoptosis assay, HEK-293 cells. It is filed as cell-based, human. Conditions: CTX 20 µM, 12 h. How it is done: (§4) Caspase 3/7 activity was assessed using a Caspase Glo 3/7 kit (Promega) according to the manufacturer’s protocol. In brief, cells were seeded at 10,000/well in a 96-well plate, attached overnight, and treated with vehicle (CTR) or CTX (20 µM) for 12 h. Staurosporin (STS, 0.5 µM) was used as a positive inducer of caspase3/7-mediated apoptosis. The absolute luminescence was normalized to the vehicle-treated control value.

Data set [4] concerns HEK293-FSHR cells. In words: Caspase Glo 3/7 apoptosis assay, HEK293-FSHR cells. The conditions noted are these: CTX 20 µM, 12 h. It is filed as cell-based, human. How it is done:
as §4

A further data set concerns FSH. In words: Plasma FSH immunofluorometric assay in xenografted mice. The data set is classed as in vivo. Conditions: CTX 5 mg/kg/48h. How it is done: The plasma levels of FSH were analyzed via an immunofluorometric assay using the Delfia Enhancer system (PerkinElmer, Turku, Finland) according to the protocol described by van Casteren et al. (Casteren et al. [2000]). The FSH assay sensitivity was 0.1 µg/L, with an intra-assay CV of 4.3% and an interassay CV of 9.8% at 4.8 µg/L. The rat FSH standard (a gift from Dr. Albert Parlow from the National Institute of Diabetes and Digestive and Kidney Diseases, Bethesda, Maryland, USA) was diluted in Diluent II buffer (DELFIA Diluent II, PerkinElmer) to concentrations ranging from 50 ng/ml to 0.02 ng/ml for rat FSH. Enhanced fluorescence signals (DELFIA Enhancement Solution; PerkinElmer) were measured using a Victor^2 fluorometer (PerkinElmer).

Data set [5] concerns LNCaP cells. The experiment in a line: CyQUANT cell proliferation assay, LNCaP cells. It is filed as cell-based, human. The conditions noted are these: CTX 1, 5, 10, or 20 µM, 48 h; three independent experiments (n = 8/experiment). How it is done:
(§5) Cell proliferation was determined using a CyQUANT Cell Proliferation Assay (C7026, Life Technologies, Thermo Fisher Scientific). Prior to the experiments, HEK-293, HEK293-FSHR, and LNCaP cells were seeded in 96-well plates (7000 cells/well). After overnight incubation in the culture medium, the cells were starved for 4 h in basal non-supplemented DMEM/F12. […] After incubation, the medium was removed, and the plates with cells were frozen at −80 °C overnight. After thawing at room temperature (RT), 200 µl of CyQUANT GR dye/cell lysis buffer was added to each well and incubated for 5 min at room temperature (RT) in the dark. The fluorescence was read using a WALLAC Victor 2 1420 spectrophotometer (Perkin Elmer, Waltham, Massachusetts, USA) with ~ 480 nm excitation and ~ 520 nm emission maxima. The results were subtracted from a standard curve made from bacteriophage λ DNA (ranging from 50 pg/ml to 1.0 µg/ml) in CyQUANT GR/cell lysis buffer and are presented as absolute values.

Data set [6] in a line: Serum biochemical assay (Fuji Dri-Chem NX500). It is filed as in vivo. Conditions: HEK293-FSHR xenograft mice (n=8-9); Fig S7. As to the method:
To quantify the serum levels of glucose, γ-glutamyltransferase (GGT), alanine aminotransferase (ALT) and aspartate aminotransferase (AST), biochemical assays were performed using Fuji Dri-Chem NX500 (Fujifilm Corporation®) according to the manufacturer’s instructions (Lei et al. [2021]).

Data set [7] deals with HEK293-FSHR cells. In words: CyQUANT cell proliferation assay, HEK293-FSHR cells. The data set is classed as cell-based, human. Conditions: CTX 1, 5, 10, or 20 µM, 48 h; three independent experiments (n = 8/experiment).
Protocol: Cell proliferation was determined using a CyQUANT Cell Proliferation Assay (C7026, Life Technologies, Thermo Fisher Scientific). […] After overnight incubation in the culture medium, the cells were starved for 4 h in basal non-supplemented DMEM/F12. The cells were then treated for 48 h with rhFSH (10, 100, or 1000 IU/L) or cetrorelix (CTX) (1, 5, 10, or 20 µM; Sigma-Aldrich), and 2.5% FSC was used as a positive control. After incubation, the medium was removed, and the plates with cells were frozen at −80 °C overnight. After thawing at room temperature (RT), 200 µl of CyQUANT GR dye/cell lysis buffer was added to each well and incubated for 5 min at room temperature (RT) in the dark. The fluorescence was read using a WALLAC Victor 2 1420 spectrophotometer (Perkin Elmer, Waltham, Massachusetts, USA) with ~ 480 nm excitation and ~ 520 nm emission maxima.
Data set [8] relates to HEK-293 cells. The experiment in a line: CyQUANT cell proliferation assay, HEK-293 cells. It is filed as cell-based, human. Conditions: CTX 1, 5, 10, or 20 µM, 48 h; three independent experiments (n = 8/experiment). How it is done:
as §5

Data set [9] deals with LNCaP cells. In words: Caspase Glo 3/7 apoptosis assay, LNCaP cells. The conditions noted are these: CTX 20 µM, 12 h. The data set is classed as cell-based, human. As to the method:
as §4

For “KFAKFAKKFAKFAKKFAKFAK-NH2 [Phor21, lytic peptide Phor21 backbone, triple heptade KFAKFAK]”, the “growth of HEK-293 xenografts (total xenograft volume at necropsy)” value with HEK-293 xenografts is recorded as “did not affect the growth”. Besides, in [1], the “spleen weight / size” value is listed as “No significant differences”. In addition, in the data set on LNCaP xenografts, the “histology of LNCaP xenografts” value is reported as “no changes” and the “growth of LNCaP xenografts (total xenograft volume at necropsy)” value is “no changes”. In data set [2], the body weight entry is “No significant differences” and the testis weight entry is “No significant differences”.

For the substance cetrorelix [CTX], the “histopathological analysis of xenograft tissues” value in the data set on HEK293-FSHR xenografts (histology, PARP1 staining) was “apoptosis”. Further, the “xenograft growth compared with the control group (total xenograft volume at necropsy)” value in the data set on HEK293-FSHR xenografts (nude male mice, Phor21 8 mg/kg/72 h, Phor21-FSHβ 2 or 8 mg/kg/72 h, CTX 5 mg/kg/48h, 21 days, n = 10–12) is listed as “reduced xenograft growth”. Besides, in the data set with HEK-293 cells [3], the “caspase 3/7 activity in HEK-293 cells” value was “activated”. In addition, the “caspase 3/7 activity in HEK293-FSHR cells” value in the data set on HEK293-FSHR cells [4] is given as “activated”. Also, in the data set on FSH (mice with HEK293-FSHR xenografts), the “FSH secretion (plasma FSH levels)” value is “significantly decreased”. Besides, the “FSH secretion (plasma FSH levels)” value with FSH (mice with LNCaP xenografts) was “inhibited FSH secretion”. Moreover, in the data set on LNCaP cells [5], the “proliferation of LNCaP cells” value is “dose-dependently decreased”. Also, in data set [6], the “serum ALT vs CTR group” value is “did not affect”, the “serum AST vs CTR group” value is “did not affect” and the “serum GGT vs CTR group” value was “did not affect”. Also, in the data set on HEK293-FSHR cells [7], the “proliferation of HEK293-FSHR cells” value is recorded as “dose-dependently decreased”. Further, the “proliferation of HEK-293 cells” value in the data set with HEK-293 cells [8] is on record as “dose-dependently decreased”. The “caspase 3/7 activity in LNCaP cells” value in the data set with LNCaP cells [9] is “activated”. In addition, the “growth of LNCaP xenografts (total xenograft volume at necropsy)” value with LNCaP xenografts is “inhibited xenograft growth”. Also, in [2], the “spleen weight / size” value was “increased” and the testis weight entry is listed as “significantly reduced”.
